Data set [1] in a line: Blood levels and metabolic ratios of tamoxifen and its metabolites after two tamoxifen injections, with saline or morphine (LC-MS/MS). Particulars: for Change of blood concentration, second vs first tamoxifen injection: saline co-injections. How it is done: Experiments were performed with 11- to 29-week-old female C57BL/6J mice (23 ± 4 g; Charles River, L'Arbresle, France). Animals were housed according to a 12-h light–dark cycle, at a temperature of 22°C ± 2°C and provided with food and water ad libitum. All procedures were performed in accordance with European directives (2010/63/EU) and were approved by the regional ethics committee and the French Ministry of Agriculture (license no. APAFIS#16827-2018092113192911 v4 to YG).
Statistical analysis was performed using GraphPad Prism 6 Software. […] Groups were compared using multiple t-tests.

The conditions of data set [2]: read-out: Km for morphine glucuronidation; mice; cited from earlier work.
A short description of data set [3]: 4OH-tamoxifen glucuronidation assay in liver microsomes, with or without morphine. Format: in vitro ADME. Particulars: male, C57/BL6J, mouse.
For data set [4] the following is noted: mice; cited from earlier work.
The conditions of data set [5]: humans; cited from earlier work.
Setting [6] is: tamoxifen 10 mg/kg i.p. at 0 and 48 h.
Where [7] appears, read: three i.p. injections of morphine 10 mg/kg at 0, 1 and 2 h.

Read-outs that look alike come from different tables or passages of the source.

As for `CC/C(=C(\c1ccccc1)c1ccc(OCCNC)cc1)c1ccccc1` [N-desmethyltamoxifen], the “Change of blood concentration, second vs first tamoxifen injection” value (shortened to “Change of blood concentration, second”) in data set [1] (setting [6]) was “significant increase”. Moreover, in data set [1] (tamoxifen 10 mg/kg i.p. at 0 and 48 h, morphine 10 mg/kg i.p. at 48, 49 and 50 h), the “Change of blood concentration after tamoxifen + morphine vs first injection of tamoxifen alone” value is “Only a tendency”. Also, in data set [1] (tamoxifen + morphine 3 x 10 mg/kg i.p.), the “N-desmethyltamoxifen/tamoxifen ratio after morphine” value was “not altered”. The “N-desmethyltamoxifen/tamoxifen ratio, second vs first tamoxifen injection” value in data set [1] (tamoxifen twice, saline) was “no difference”.

Regarding `CN1CC[C@]23c4c5ccc(O[C@@H]6O[C@H](C(=O)O)[C@@H](O)[C@H](O)[C@H]6O)c4O[C@H]2[C@@H](O)C=C[C@H]3[C@H]1C5` [M3G, morphine-3-glucuronide], under setting [7], the “Time at which the highest blood concentration was reached” value came to 2 h. For the same molecule, under “three i.p. injections of morphine 10 mg/kg at 0, 1 and 2 h, mean ± SEM”, the “Highest concentration in the blood” value is 9,773 ± 1,274 pmol/ml.

Regarding `CN1CC[C@]23c4c5ccc(O)c4O[C@H]2[C@@H](O)C=C[C@H]3[C@H]1C5` [morphine, reference compound], the “Presence in blood after 8 h” value (three i.p. injections of morphine 10 mg/kg) was “still present”. Under setting [7], the “Time at which the highest blood concentration was reached” value worked out at 2 h. Besides, the Km in data set [2] is 500 µM.

Turning to `CC/C(=C(\c1ccc(O)cc1)c1ccc(OCCN(C)C)cc1)c1ccccc1` [4OH-tamoxifen], the Km at 20 s in data set [3] was determined as 68 µM.

On to `CC/C(=C(\c1ccc(OCCN(C)C)cc1)c1ccc(O[C@H]2O[C@@H](C(=O)O)[C@H](O)[C@@H](O)[C@@H]2O)cc1)c1ccccc1` [4OH-tamoxifen-glucuronide], for which the “Change of blood concentration, second” value in data set [1] (setting [6]) is on record as “significant increase”.

Regarding `CC/C(=C(/c1ccc(OCCNC)cc1)c1ccc(O[C@@H]2O[C@H](C(=O)O)[C@@H](O)[C@H](O)[C@H]2O)cc1)c1ccccc1` [endoxifen-glucuronide], the “Change of blood concentration, second” value in data set [1] (setting [6]) is listed as “did not vary significantly”. For the same molecule, in data set [1] (tamoxifen 10 mg/kg i.p. twice, saline, t = 2 h), the “Increase of endoxifen-glucuronide/endoxifen ratio, second vs first tamoxifen injection” value turned out to be 3 fold.

For `CC/C(=C(\c1ccccc1)c1ccc(OCCN(C)C)cc1)c1ccccc1` [tamoxifen], the Half-life in data set [4] is 6.8 h; in data set [5], 27 h.

The values are drawn from publication PMC7046683 (Frontiers in Oncology, 2020).
